Measured values published in patent US20250270172A1, “Pyrimidine Derivatives As Modulators of the 5-HT2A Serotonin Receptor Useful For The Treatment of Disorders Related Thereto” (Arena Pharmaceuticals, Inc., priority 2020, published 2025).

biological target: 5-HT2A (Homo sapiens (Human), UniProt P28223); experiment: Radioligand binding assay, [^3H]5-HT competition, 5-HT2A; settings: [^3H]5-HT radioligand, membranes of HEK293 cells expressing recombinant 5-HT2A; Ki from IC50 by Cheng-Prusoff; read-out: 5-HT2A serotonin binding Ki value
Sequence (P28223 whole entry): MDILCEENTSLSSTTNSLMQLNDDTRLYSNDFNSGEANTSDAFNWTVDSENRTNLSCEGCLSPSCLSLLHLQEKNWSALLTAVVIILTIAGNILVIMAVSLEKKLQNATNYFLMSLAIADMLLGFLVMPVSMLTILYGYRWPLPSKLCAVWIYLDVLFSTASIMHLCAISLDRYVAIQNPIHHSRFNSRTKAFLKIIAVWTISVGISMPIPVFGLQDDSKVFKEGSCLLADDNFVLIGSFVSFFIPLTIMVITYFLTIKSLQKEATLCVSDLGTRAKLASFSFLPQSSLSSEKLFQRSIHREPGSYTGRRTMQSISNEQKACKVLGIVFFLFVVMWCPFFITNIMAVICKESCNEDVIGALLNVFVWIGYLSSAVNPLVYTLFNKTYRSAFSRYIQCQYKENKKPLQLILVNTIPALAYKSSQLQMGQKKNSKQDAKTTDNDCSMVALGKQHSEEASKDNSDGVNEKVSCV

Compound	Ki [nM]
CCN(CCOC)CCOc1ccc(NC(=O)C2CC2)cc1-c1c(C)ncnc1C [Compound 355, N-(3-(4,6-dimethylpyrimidin-5-yl)-4-(2-(ethyl (2-methoxyethyl)amino)ethoxy)phenyl)cyclopropanecarboxamide]	177
COCCN(C)CCOc1ccc(NC(=O)c2ccc(F)cc2)cc1-c1c(C)ncnc1C [Compound 379, N-(3-(4,6-dimethylpyrimidin-5-yl)-4-(2-((2-methoxyethyl)(methyl)amino)ethoxy)phenyl)-4-fluorobenzamide]	8.38
Cc1ncnc(C)c1-c1cc(NC(=O)C2CC2)ccc1OC[C@@H]1CCCCN1 [Compound 420, N-[3-(4,6-dimethylpyrimidin-5-yl)-4-[[(2S)-2-piperidyl]methoxy]phenyl]cyclopropanecarboxamide]	92.7
Cc1ncnc(C)c1-c1cc(NC(=O)[C@H]2C[C@H]2F)ccc1O[C@@H]1CCCNC1 [Compound 410, (1R,2R)—N-(3-(4,6-dimethylpyrimidin-5-yl)-4-(((R)-piperidin-3-yl)oxy)phenyl)-2-fluorocyclopropane-1-carboxamide]	37.4
Cc1ncoc1C(=O)Nc1ccc(OCCN2CCOCC2)c(-c2c(C)ncnc2C)c1 [Compound 393, N-(3-(4,6-dimethylpyrimidin-5-yl)-4-(2-morpholinoethoxy)phenyl)-4-methyloxazole-5-carboxamide]	11.2
Cc1ncnc(C)c1-c1cc(NC(=O)[C@@H]2C[C@@H]2F)ccc1O[C@@H]1CCCNC1 [Compound 411, (1S,2S)—N-(3-(4,6-dimethylpyrimidin-5-yl)-4-(((R)-piperidin-3-yl)oxy)phenyl)-2-fluorocyclopropane-1-carboxamide]	12.8
Cc1ncnc(C)c1-c1cc(NC(=O)C2CC2)ccc1OCCN1CCN(S(C)(=O)=O)CC1 [Compound 342, N-[3-(4,6-dimethylpyrimidin-5-yl)-4-[2-(4-methylsulfonylpiperazin-1yl)ethoxy]phenyl]cyclopropanecarboxamide]	6.95
Cc1ncnc(C)c1-c1cc(NC(=O)CCF)ccc1OCCN1CCCC1 [Compound 281, N-[3-(4,6-dimethylpyrimidin-5-yl)-4-(2-pyrrolidin-1-ylethoxy)phenyl]-3-fluoro-propanamide]	30.6
Cc1nocc1C(=O)Nc1ccc(OC[C@H]2CCCCN2)c(-c2c(C)ncnc2C)c1 [Compound 430, (R)—N-(3-(4,6-dimethylpyrimidin-5-yl)-4-(piperidin-2-ylmethoxy)phenyl)-3-methylisoxazole-4-carboxamide]	21.6
Cc1ncnc(C)c1-c1cc(NC(=O)[C@@H]2C[C@@H]2F)ccc1OC[C@H]1CCCCN1 [Compound 424, (1S,2S)—N-(3-(4,6-dimethylpyrimidin-5-yl)-4-(((R)-piperidin-2-yl)methoxy)phenyl)-2-fluorocyclopropane-1-carboxamide]	12.5
Cc1ncnc(C)c1-c1cc(NC(=O)Cc2ncsc2C)ccc1OCCN1CCCC1 [Compound 225, N-(3-(4,6-dimethylpyrimidin-5-yl)-4-(2-(pyrrolidin-1-yl)ethoxy)phenyl)-2-(5-methylthiazol-4-yl)acetamide]	712
Cc1cc(CC(=O)Nc2ccc(OCCN3CCCC3)c(-c3c(C)ncnc3C)c2)on1 [Compound 264, N-(3-(4,6-dimethylpyrimidin-5-yl)-4-(2-(pyrrolidin-1-yl)ethoxy)phenyl)-2-(3-methylisoxazol-5-yl)acetamide]	9.18
Cc1ncnc(C)c1-c1cc(NC(=O)COC2CCC2)ccc1OCCN1CCCC1 [Compound 242, 2-cyclobutoxy-N-(3-(4,6-dimethylpyrimidin-5-yl)-4-(2-(pyrrolidin-1-yl)ethoxy)phenyl)acetamide]	37.6
Cc1ncnc(C)c1-c1cc(NC(=O)c2cncc(F)c2)ccc1OCCN1CCCC1 [Compound 207, N-(3-(4,6-dimethylpyrimidin-5-yl)-4-(2-(pyrrolidin-1-yl)ethoxy)phenyl)-5-fluoronicotinamide]	44.2
Cc1nc(C)c(C(=O)Nc2ccc(O[C@@H]3CCCNC3)c(-c3c(C)ncnc3C)c2)s1 [Compound 413, (R)—N-(3-(4,6-dimethylpyrimidin-5-yl)-4-(piperidin-3-yloxy)phenyl)-2,4-dimethylthiazole-5-carboxamide]	255
Cc1ncnc(C)c1-c1cc(NC(=O)Cc2cccn2C)ccc1OCCN1CCCC1 [Compound 249, N-(3-(4,6-dimethylpyrimidin-5-yl)-4-(2-(pyrrolidin-1-yl)ethoxy)phenyl)-2-(1-methyl-1H-pyrrol-2-yl)acetamide]	78.3
CCCN(CCO)CCOc1ccc(NC(=O)C2CC2)cc1-c1c(C)ncnc1C [Compound 359, N-(3-(4,6-dimethylpyrimidin-5-yl)-4-(2-((2-hydroxyethyl)(propyl)amino)ethoxy)phenyl)cyclopropanecarboxamide]	102
Cc1ncnc(C)c1-c1cc(NC(=O)C2CC2)ccc1OCCN1CCC2(CC1)CC(=O)N2 [Compound 348, N-(3-(4,6-dimethylpyrimidin-5-yl)-4-(2-(2-oxo-1,7-diazaspiro[3.5]nonan-7-yl)ethoxy)phenyl)cyclopropanecarboxamide]	66.6

Compound	Ki [nM]
COC1(C(=O)Nc2ccc(OCCN3CCCC3)c(-c3c(C)ncnc3C)c2)CCC1 [Compound 286, N-[3-(4,6-dimethylpyrimidin-5-yl)-4-(2-pyrrolidin-1-ylethoxy)phenyl]-1-methoxy-cyclobutanecarboxamide]	10.1
Cc1ncnc(C)c1-c1cc(NC(=O)c2ccccc2)ccc1OCCN1C[C@H]2C[C@H]2C1 [Compound 384, N-[4-[2-[(1R,5S)-3-azabicyclo[3.1.0]hexan-3-yl]ethoxy]-3-(4,6-dimethylpyrimidin-5-yl)phenyl]benzamide]	3.63
Cc1ncnc(C)c1-c1cc(NC(=O)C2CC2)ccc1OCCN1CC2(COC2)C1 [Compound 345, N-(4-(2-(2-oxa-6-azaspiro[3.3]heptan-6-yl)ethoxy)-3-(4,6-dimethylpyrimidin-5-yl)phenyl)cyclopropanecarboxamide]	19.5
Cc1ncnc(C)c1-c1cc(NC(=O)c2ncccc2F)ccc1OCCN1CCC1 [Compound 330, N-(4-(2-(azetidin-1-yl)ethoxy)-3-(4,6-dimethylpyrimidin-5-yl)phenyl)-3-fluoropicolinamide]	334
Cc1ncnc(C)c1-c1cc(NC(=O)C2CC2)ccc1O[C@H]1CCCNC1 [Compound 419, (S)—N-(3-(4,6-dimethylpyrimidin-5-yl)-4-(piperidin-3-yloxy)phenyl)cyclopropanecarboxamide]	443
Cc1ncnc(C)c1-c1cc(NC(=O)C2CC2)ccc1OCCN1CCC2(CC1)CNC2=O [Compound 347, N-(3-(4,6-dimethylpyrimidin-5-yl)-4-(2-(1-oxo-2,7-diazaspiro[3.5]nonan-7-yl)ethoxy)phenyl)cyclopropanecarboxamide]	42.3
Cc1ncnc(C)c1-c1cc(NC(=O)C2CC2)ccc1OCCN1CCC(CC(=O)O)CC1 [Compound 335, 2-[1-[2-[4-(cyclopropanecarbonylamino)-2-(4,6-dimethylpyrimidin-5-yl)phenoxy]ethyl]-4-piperidyl]acetic acid]	196
Cc1ncnc(C)c1-c1cc(NC(=O)c2cnoc2)ccc1OCCN1CCCC1 [Compound 218, N-(3-(4,6-dimethylpyrimidin-5-yl)-4-(2-(pyrrolidin-1-yl)ethoxy)phenyl)isoxazole-4-carboxamide]	1510
Cc1ccc(C(=O)Nc2ccc(OCCN3CCC3)c(-c3c(C)ncnc3C)c2)cc1 [Compound 323, N-(4-(2-(azetidin-1-yl)ethoxy)-3-(4,6-dimethylpyrimidin-5-yl)phenyl)-4-methylbenzamide]	3.77
Cc1ncnc(C)c1-c1cc(NC(=O)C2CC2)ccc1OCCN1[C@@H]2COC[C@H]1C2 [Compound 337, N-[3-(4,6-dimethylpyrimidin-5-yl)-4-[2-[(1S,5R)-3-oxa-6-azabicyclo[3.1.1]heptan-6-yl]ethoxy]phenyl]cyclopropanecarboxamide]	7.29
Cc1ncnc(C)c1-c1cc(NC(=O)c2cccc(F)c2)ccc1OCCN1CCC1 [Compound 320, N-(4-(2-(azetidin-1-yl)ethoxy)-3-(4,6-dimethylpyrimidin-5-yl)phenyl)-3-fluorobenzamide]	1.77
Cc1ccccc1C(=O)Nc1ccc(OCCN2CCCC2)c(-c2c(C)ncnc2C)c1 [Compound 299, N-(3-(4,6-dimethylpyrimidin-5-yl)-4-(2-(pyrrolidin-1-yl)ethoxy)phenyl)-2-methylbenzamide]	20.6
CCN(CCO)CCOc1ccc(NC(=O)C2CC2)cc1-c1c(C)ncnc1C [Compound 358, N-(3-(4,6-dimethylpyrimidin-5-yl)-4-(2-(ethyl(2-hydroxyethyl)amino)ethoxy)phenyl)cyclopropanecarboxamide]	66.7
Cc1ncnc(C)c1-c1cc(NC(=O)C2CC2)ccc1OCCN(C)CC1CC1 [Compound 368, N-(4-(2-((cyclopropylmethyl)(methyl)amino)ethoxy)-3-(4,6-dimethylpyrimidin-5-yl)phenyl)cyclopropanecarboxamide]	19.6
Cc1ncnc(C)c1-c1cc(NC(=O)C2CC2)ccc1OCCN1C[C@@H]2C[C@H]1CO2 [Compound 336, N-[3-(4,6-dimethylpyrimidin-5-yl)-4-[2-[(1S,4S)-2-oxa-5-azabicyclo[2.2.1]heptan-5-yl]ethoxy]phenyl]cyclopropanecarboxamide]	6.42
Cc1ncnc(C)c1-c1cc(NC(=O)Cc2nccs2)ccc1OCCN1CCC1 [Compound 329, N-(4-(2-(azetidin-1-yl)ethoxy)-3-(4,6-dimethylpyrimidin-5-yl)phenyl)-2-(thiazol-2-yl)acetamide]	11.5
Cc1ncnc(C)c1-c1cc(NC(=O)C2CC2)ccc1O[C@@H]1CCCNC1 [Compound 418, (R)—N-(3-(4,6-dimethylpyrimidin-5-yl)-4-(piperidin-3-yloxy)phenyl)cyclopropanecarboxamide]	7.29
CCN(C)CCOc1ccc(NC(=O)C2CC2)cc1-c1c(C)ncnc1C [Compound 366, N-[3-(4,6-dimethylpyrimidin-5-yl)-4-[2-[ethyl(methyl)amino]ethoxy]phenyl]cyclopropanecarboxamide]	11.2
